Laboratory results reported in patent US20020028788A1, “Vaginal active agent delivery procedures and formulations thereof” (priority 1998, published 2002).
Marks after values point to notes of the source that are not given here.

Columns and labels:
cattle [1] = test: Follicular dynamics and oestrus following vaginal oestradiol 17β or intramuscular oestradiol benzoate; type: in vivo; details: for Follicle wave turnover (i.e. DF3) / No follicle wave turnover (i.e. no DF3): number of animals
[2] = Plasma oestradiol concentration and pharmacokinetics following vaginal or intramuscular administration; type: in vivo; details: cattle, oestradiol benzoate
Description: Error bars are standard error means (n=3).
FIG. 2 is a plasma oestradiol concentrations following vaginal administration of 10 mg oestradiol benzoate (open square), 10 mg oestradiol benzoate with 1:1 molar ratio β-cyclodextrin (open diamond), 10 mg oestradiol benzoate with 1:1 molar ratio hydroxypropyl β-cyclodextrin (open circle) or 10 mg oestradiol benzoate with 1:1 molar ratio γ-cyclodextrin (open triangle). Error bars are standard error means (n=4).
Error bars are standard error means (n=4).

cattle [3] = details: past attempts; vaginal administration by capsule; doses typically 10 times higher than intra-muscular; cited from earlier work
[4] = 2 mg oestradiol benzoate, intramuscular administration
[5] = 2 mg oestradiol benzoate, intramuscular administration, group n = 7
[6] = 2.5 mg oestradiol 17β, vaginal administration
[7] = 5.0 mg oestradiol 17β, vaginal administration
[8] = 2.5 mg oestradiol 17β, vaginal administration, group n = 8
[9] = 5.0 mg oestradiol 17β, vaginal administration, group n = 8

## C[C@]12CC[C@@H]3c4ccc(OC(=O)c5ccccc5)cc4CC[C@H]3[C@@H]1CC[C@@H]2O [oestradiol benzoate]
Cattle [1]; [4]
  Age of ovulatory DF3: 6.0 ± 0.5^ d
  Day DF2 emerged: 9.6 ± 0.6^a
  Day DF3 emerged: 17.0 ± 0.4 ^
  Diameter DF2 on Day 13: 9.6 ± 1.0^a mm
  Diameter of ovulatory DF3: 14.2 ± 0.4 ^ mm
  Growth of DF2 from Day 13-17: −0.6 ± 0.7^b mm
Cattle [1]; 2 mg oestradiol benzoate, intramuscular administration, n = 7
  Day of oestrus: 22.6 ± 0.2 (n = 7)
Cattle [1]; [5]
  Follicle wave turnover (i.e. DF3): 6
  No follicle wave turnover (i.e. no DF3): 1
[2]
  absorption following vaginal administration: poor and variable absorption
Cattle [3]
  oestrus expression and fertility: poor oestrus expression and poor fertility

## C[C@]12CC[C@@H]3c4ccc(O)cc4CC[C@H]3[C@@H]1CC[C@@H]2O [oestradiol 17β]
Cattle [1]; [6]
  Age of ovulatory DF2: 12.0 ± 0.6 ^ d
  Age of ovulatory DF3: 6 days
  Day DF2 emerged: 9.9 ± 0.4^a
  Diameter DF2 on Day 13: 9.9 ± 0.5^a mm
  Diameter of ovulatory DF2: 15.6 ± 0.7 ^ mm
  Diameter of ovulatory DF3: 12 mm
  Growth of DF2 from Day 13-17: 2.4 ± 0.6^a mm
Cattle [1]; 2.5 mg oestradiol 17β, vaginal administration, n = 7
  Day of oestrus: 22.0 ± 0.0 (n = 7)
Cattle [1]; [7]
  Age of ovulatory DF2: 11.5 ± 0.5 ^ d
  Age of ovulatory DF3: 7.0 ± 0.5^ d
  Day DF2 emerged: 10.0 ± 0.6^a
  Day DF3 emerged: 15.7 ± 0.6 ^
  Diameter DF2 on Day 13: 9.3 ± 0.8^a mm
  Diameter of ovulatory DF2: 17.0 ± 1.0 ^ mm
  Diameter of ovulatory DF3: 13.7 ± 0.7 ^ mm
  Growth of DF2 from Day 13-17: 0.9 ± 0.8^ab mm
Cattle [1]; 5.0 mg oestradiol 17β, vaginal administration, n = 8
  Day of oestrus: 22.0 ± 0.0 (n = 8)
Cattle [1]; [8]
  Follicle wave turnover (i.e. DF3): 3
  No follicle wave turnover (i.e. no DF3): 5
Cattle [1]; [9]
  Follicle wave turnover (i.e. DF3): 6
  No follicle wave turnover (i.e. no DF3): 2
Cattle [1]; vaginal administration, 5 mg oestradiol 17β and γ-cyclodextrin in molar ratio 0.5:1, compared with i.m. 2 mg oestradiol benzoate
  influence on follicular dynamics: influences follicular dynamics in a similar manner
